# From PubChem BioAssay (NCI)
#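 Briefly, cells in 96-well plates were exposed to five compound concentrations for 48 h, and endpoints were estimated by linear interpolation. GI50 marks 50% less growth. TGI marks complete inhibition of growth.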
# How the values were obtained:
# Assay in all cases: NCI tumour cell line growth inhibition, 48 h
# 786-0 renal = test system: 786-0 renal
# A498 renal = test system: A498 renal
# A549 NSCLC = test system: A549 NSCLC
# ACHN renal = test system: ACHN renal
# BT-549 breast = test system: BT-549 breast
# CAKI-1 renal = test system: CAKI-1 renal
# CCRF-CEM leukemia = test system: CCRF-CEM leukemia
# COLO 205 colon = test system: COLO 205 colon
# DU-145 prostate = test system: DU-145 prostate
# EKVX NSCLC = test system: EKVX NSCLC
# HCC-2998 colon = test system: HCC-2998 colon
# HCT-116 colon = test system: HCT-116 colon
# HCT-15 colon = test system: HCT-15 colon
# HL-60(TB) leukemia = test system: HL-60(TB) leukemia
# HOP-62 NSCLC = test system: HOP-62 NSCLC
# HOP-92 NSCLC = test system: HOP-92 NSCLC
# HS 578T breast = test system: HS 578T breast
# HT29 colon = test system: HT29 colon
# IGROV1 ovarian = test system: IGROV1 ovarian
# K-562 leukemia = test system: K-562 leukemia
# KM12 colon = test system: KM12 colon
# LOX IMVI melanoma = test system: LOX IMVI melanoma
# M14 melanoma = test system: M14 melanoma
# MALME-3M melanoma = test system: MALME-3M melanoma
# MCF7 breast = test system: MCF7 breast
# MDA-MB-231 breast = test system: MDA-MB-231 breast
# MDA-MB-435 = test system: MDA-MB-435
# MOLT-4 leukemia = test system: MOLT-4 leukemia
# NCI-H226 lung = test system: NCI-H226 lung
smiles,measurement,setting,value
NC(=O)c1sc(-n2cnc3ccc(C(F)(F)F)cc32)cc1OCc1ccccc1Br,GI50,786-0 renal,5.31 µM
same,TGI,786-0 renal,> 25 µM
same,GI50,A498 renal,2240 nM
same,TGI,A498 renal,16.2 µM
same,GI50,A549 NSCLC,1570 nM
same,TGI,A549 NSCLC,> 25 µM
same,GI50,ACHN renal,5.54 µM
same,TGI,ACHN renal,> 25 µM
same,GI50,BT-549 breast,3.21 µM
same,TGI,BT-549 breast,> 25 µM
same,GI50,CAKI-1 renal,15.3 µM
same,TGI,CAKI-1 renal,> 25 µM
same,GI50,CCRF-CEM leukemia,685 nM
same,TGI,CCRF-CEM leukemia,> 25 µM
same,GI50,COLO 205 colon,802 nM
same,TGI,COLO 205 colon,3.44 µM
same,GI50,DU-145 prostate,942 nM
same,TGI,DU-145 prostate,3.89 µM
same,GI50,EKVX NSCLC,> 21.3 µM
same,TGI,EKVX NSCLC,> 25 µM
same,GI50,HCC-2998 colon,2400 nM
same,TGI,HCC-2998 colon,> 23.1 µM
same,GI50,HCT-116 colon,1430 nM
same,TGI,HCT-116 colon,> 25 µM
same,GI50,HCT-15 colon,1420 nM
same,TGI,HCT-15 colon,> 25 µM
same,GI50,HL-60(TB) leukemia,558 nM
same,TGI,HL-60(TB) leukemia,1760 nM
same,GI50,HOP-62 NSCLC,916 nM
same,TGI,HOP-62 NSCLC,> 10.5 µM
same,GI50,HOP-92 NSCLC,2500 nM
same,TGI,HOP-92 NSCLC,16.8 µM
same,GI50,HS 578T breast,4.22 µM
same,TGI,HS 578T breast,> 22.8 µM
same,GI50,HT29 colon,858 nM
same,TGI,HT29 colon,> 25 µM
same,GI50,IGROV1 ovarian,2220 nM
same,TGI,IGROV1 ovarian,> 25 µM
same,GI50,K-562 leukemia,1060 nM
same,TGI,K-562 leukemia,> 25 µM
same,GI50,KM12 colon,723 nM
same,TGI,KM12 colon,2870 nM
same,GI50,LOX IMVI melanoma,1500 nM
same,TGI,LOX IMVI melanoma,> 25 µM
same,GI50,M14 melanoma,1890 nM
same,TGI,M14 melanoma,> 25 µM
same,GI50,MALME-3M melanoma,9.02 µM
same,TGI,MALME-3M melanoma,> 25 µM
same,GI50,MCF7 breast,805 nM
same,TGI,MCF7 breast,> 6.28 µM
same,GI50,MDA-MB-231 breast,1620 nM
same,TGI,MDA-MB-231 breast,19.3 µM
same,GI50,MDA-MB-435,636 nM
same,TGI,MDA-MB-435,1780 nM
same,GI50,MOLT-4 leukemia,965 nM
same,TGI,MOLT-4 leukemia,> 25 µM
same,GI50,NCI-H226 lung,1940 nM
same,TGI,NCI-H226 lung,18.6 µM
